In ChEMBL document CHEMBL1201862, “PubChem BioAssay data set” (2004):
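Five compound concentrations were applied to cells in 96-well plates for 48 hours; endpoints were derived by simple linear interpolation of the resulting dose-response curve. At the GI50, growth is halved.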 Activity calls are given as the source filed them. Cut-off read from the data, not from the text of the source: active = GI50 up to about 1.1 µM and inactive = higher.

Key:
Assay in all cases: NCI-60 cell line screen, 48 h
Malme-3M = test system: Malme-3M
K562 = test system: K562
IGROV-1 = test system: IGROV-1
RPMI-8226 = test system: RPMI-8226
NCI-H23 = test system: NCI-H23
HT-29 = test system: HT-29
OVCAR-3 = test system: OVCAR-3
MDA-MB-231 = test system: MDA-MB-231
SR = test system: SR
SW-620 = test system: SW-620
COLO 205 = test system: COLO 205
SK-MEL-5 = test system: SK-MEL-5
NCI-H226 = test system: NCI-H226
EKVX = test system: EKVX
SF-295 = test system: SF-295
SF-268 = test system: SF-268
NCI/ADR-RES = test system: NCI/ADR-RES
MOLT-4 = test system: MOLT-4
SNB-19 = test system: SNB-19
BT-549 = test system: BT-549

Measured: GI50

CC(=O)c1sc2c(c1OC(=O)c1ccc(Cl)cc1Cl)c(=O)n(-c1ccccc1)c(=S)n2-c1ccccc1
active: Malme-3M 0.252 µM | RPMI-8226 0.213 µM | HT-29 0.28 µM | MDA-MB-231 0.861 µM | SR 0.501 µM | COLO 205 1.07 µM | NCI-H226 0.258 µM | SF-295 0.267 µM | SF-268 0.552 µM | NCI/ADR-RES 1.05 µM | MOLT-4 0.14 µM | SNB-19 0.673 µM
inactive: K562 4.32 µM | IGROV-1 5.51 µM | NCI-H23 5.83 µM | OVCAR-3 4.14 µM | SW-620 3.97 µM | SK-MEL-5 1.8 µM | EKVX 6.55 µM

O=C1c2ccccc2C2=Cc3ccccc3C(O)N12 (stereo not drawn)
inactive: Malme-3M > 100 µM | K562 36.1 µM | IGROV-1 > 100 µM | RPMI-8226 55.3 µM | NCI-H23 > 100 µM | HT-29 > 100 µM | OVCAR-3 > 100 µM | MDA-MB-231 > 100 µM | SR 25.8 µM | SW-620 > 100 µM | COLO 205 > 100 µM | SK-MEL-5 > 100 µM | NCI-H226 > 100 µM | EKVX > 100 µM | SF-295 > 100 µM | SF-268 > 100 µM | NCI/ADR-RES > 100 µM | MOLT-4 34 µM | SNB-19 > 100 µM

Cc1cccc2c(N)c3cccc(C(=O)NCC[N+](C)(C)Cc4ccccc4[N+](=O)[O-])c3nc12
active: SR 0.258 µM | MOLT-4 1.09 µM
inactive: Malme-3M 6.76 µM | K562 4.72 µM | IGROV-1 5.78 µM | RPMI-8226 4.84 µM | NCI-H23 5.22 µM | HT-29 5.22 µM | OVCAR-3 18 µM | MDA-MB-231 13.6 µM | SW-620 7.6 µM | COLO 205 9.02 µM | SK-MEL-5 7.57 µM | NCI-H226 3.94 µM | EKVX 31.5 µM | SF-295 6.32 µM | SF-268 5.12 µM | NCI/ADR-RES 8.67 µM | SNB-19 14.1 µM

CC1C2CC(CC2N)C1(C)C (stereo not drawn)
inactive: Malme-3M > 100 µM | K562 > 100 µM | BT-549 > 100 µM | IGROV-1 > 100 µM | NCI-H23 > 100 µM | HT-29 > 100 µM | OVCAR-3 > 100 µM | MDA-MB-231 > 100 µM | SR > 100 µM | SW-620 > 100 µM | COLO 205 > 100 µM | SK-MEL-5 > 100 µM | NCI-H226 > 100 µM | EKVX > 100 µM | SF-295 > 100 µM | SF-268 > 100 µM | MOLT-4 > 100 µM | SNB-19 > 100 µM

O=c1c(-c2ccccc2F)coc2cc(F)ccc12
inactive: BT-549 99.1 µM | IGROV-1 88.3 µM | NCI-H23 63.4 µM | HT-29 > 100 µM | OVCAR-3 > 100 µM | MDA-MB-231 > 100 µM | SW-620 > 100 µM | COLO 205 > 100 µM | SK-MEL-5 > 100 µM | NCI-H226 > 100 µM | EKVX > 100 µM | SF-295 > 100 µM | SF-268 > 100 µM | MOLT-4 > 100 µM | SNB-19 > 100 µM

CCOC(=O)C1(C/C=C/CBr)Cc2ccccc2C1=O (stereo not drawn)
inactive: Malme-3M 2.76 µM | K562 1.87 µM | BT-549 2.95 µM | IGROV-1 2.7 µM | RPMI-8226 2.02 µM | NCI-H23 2.02 µM | HT-29 2.79 µM | OVCAR-3 2.17 µM | MDA-MB-231 4.7 µM | SW-620 2.58 µM | COLO 205 3.21 µM | SK-MEL-5 2.67 µM | EKVX 14.6 µM | SF-295 8.57 µM | SF-268 2.91 µM | NCI/ADR-RES 1.98 µM | MOLT-4 2.49 µM | SNB-19 5.45 µM

N#CC1Nc2ccccc2[C@@H](O)C1O (stereo partly drawn)
inactive: Malme-3M > 100 µM | K562 > 100 µM | IGROV-1 > 100 µM | RPMI-8226 > 100 µM | NCI-H23 > 100 µM | HT-29 > 100 µM | OVCAR-3 > 100 µM | MDA-MB-231 > 100 µM | SR > 100 µM | SW-620 > 100 µM | COLO 205 > 100 µM | SK-MEL-5 > 100 µM | EKVX > 100 µM | SF-295 > 100 µM | SF-268 > 100 µM | NCI/ADR-RES > 100 µM | MOLT-4 > 100 µM

COC1=C(NC(C)=O)C(=O)c2nc3n(c2C1=O)CCC3
inactive: Malme-3M 20.4 µM | K562 26.7 µM | IGROV-1 19.3 µM | RPMI-8226 24.4 µM | NCI-H23 20.4 µM | HT-29 26.5 µM | OVCAR-3 15.7 µM | MDA-MB-231 13.3 µM | SR 36.9 µM | SW-620 20.9 µM | COLO 205 21.4 µM | SK-MEL-5 17.5 µM | NCI-H226 26.7 µM | EKVX 19.5 µM | SF-295 20.5 µM | SF-268 17.7 µM | NCI/ADR-RES 19.5 µM | MOLT-4 4.06 µM | SNB-19 26.7 µM

CC(=O)NC(CCCOC(C)=O)C(=O)NC(CCCOC(C)=O)C(=O)NC(CCCOC(C)=O)C(=O)NC(Cc1ccc([N+](=O)[O-])cc1)C(=O)NCC(=O)OCc1ccccc1 (stereo not drawn)
inactive: Malme-3M > 100 µM | K562 > 100 µM | IGROV-1 > 100 µM | RPMI-8226 > 100 µM | NCI-H23 > 100 µM | HT-29 > 100 µM | OVCAR-3 > 100 µM | MDA-MB-231 > 100 µM | SR 74 µM | SW-620 > 100 µM | COLO 205 > 100 µM | SK-MEL-5 > 100 µM | NCI-H226 > 100 µM | EKVX > 100 µM | SF-295 > 100 µM | SF-268 > 100 µM | NCI/ADR-RES > 100 µM | MOLT-4 > 100 µM | SNB-19 > 100 µM

O=c1c2cc(I)ccc2nc(-c2cccs2)n1-c1ccc(O)cc1
inactive: Malme-3M 5.4 µM | K562 24.2 µM | BT-549 14.5 µM | IGROV-1 13.5 µM | RPMI-8226 3.37 µM | NCI-H23 16.7 µM | HT-29 13 µM | OVCAR-3 9.51 µM | SR 17.4 µM | SW-620 22.2 µM | COLO 205 17.2 µM | SK-MEL-5 11.6 µM | NCI-H226 14.4 µM | EKVX 14.4 µM | SF-295 12.6 µM | SF-268 14.1 µM | NCI/ADR-RES 17.8 µM | MOLT-4 6.04 µM | SNB-19 16.6 µM

COc1cc2oc(=O)cc(C)c2c(OC)c1OC(C)=O
inactive: Malme-3M > 100 µM | K562 > 100 µM | IGROV-1 > 100 µM | RPMI-8226 > 100 µM | NCI-H23 > 100 µM | HT-29 > 100 µM | OVCAR-3 > 100 µM | MDA-MB-231 > 100 µM | SR > 100 µM | SW-620 > 100 µM | COLO 205 > 100 µM | SK-MEL-5 > 100 µM | NCI-H226 > 100 µM | EKVX > 100 µM | SF-295 > 100 µM | SF-268 > 100 µM | NCI/ADR-RES > 100 µM | MOLT-4 > 100 µM | SNB-19 > 100 µM

O=C(CCCN1CCC2(CC1)/C(=N/C1CCCCC1)NC(=O)N2c1ccccc1)c1ccc(F)cc1
inactive: Malme-3M 12.7 µM | K562 29.8 µM | IGROV-1 26.7 µM | RPMI-8226 20.9 µM | NCI-H23 21.3 µM | HT-29 17.9 µM | OVCAR-3 11.6 µM | MDA-MB-231 12.4 µM | SR 16.7 µM | SW-620 > 100 µM | COLO 205 16.1 µM | SK-MEL-5 23.1 µM | NCI-H226 14.9 µM | EKVX 29.8 µM | SF-295 19.5 µM | SF-268 19 µM | NCI/ADR-RES 19.2 µM | MOLT-4 21.9 µM | SNB-19 > 100 µM

O=C(O)CCC1(CCC(=O)O)CCCCCCCCC(CCC(=O)O)(CCC(=O)O)C(=O)C1=O
active: RPMI-8226 < 0.01 µM
inactive: Malme-3M > 100 µM | K562 > 100 µM | NCI-H23 > 100 µM | HT-29 > 100 µM | OVCAR-3 > 100 µM | SR 84.9 µM | SW-620 > 100 µM | COLO 205 > 100 µM | NCI-H226 > 100 µM | EKVX > 100 µM | SF-295 > 100 µM | SF-268 > 100 µM | NCI/ADR-RES > 100 µM | SNB-19 > 100 µM

Cc1ccccc1C1OC1C(=O)c1ccccc1N (stereo not drawn)
inactive: K562 56.8 µM | RPMI-8226 46.7 µM | NCI-H23 38.6 µM | HT-29 45.3 µM | MDA-MB-231 31.6 µM | SR > 100 µM | SW-620 80.4 µM | COLO 205 87.3 µM | SK-MEL-5 44.5 µM | NCI-H226 > 100 µM | SF-268 > 100 µM | NCI/ADR-RES 51.3 µM | MOLT-4 39.3 µM | SNB-19 56.4 µM

COc1ccc(C(c2cc(OC)c(OC)c(OC)c2)N2C(=O)CCC2C(=O)O)cc1 (stereo not drawn)
inactive: Malme-3M 68.9 µM | K562 43.8 µM | IGROV-1 84.5 µM | RPMI-8226 49.8 µM | NCI-H23 82.8 µM | HT-29 35.6 µM | OVCAR-3 33.8 µM | MDA-MB-231 > 100 µM | SR 49.7 µM | SW-620 50.1 µM | COLO 205 41 µM | SK-MEL-5 41.9 µM | NCI-H226 74.3 µM | EKVX > 100 µM | SF-295 24.3 µM | SF-268 > 100 µM | NCI/ADR-RES > 100 µM | MOLT-4 72.6 µM | SNB-19 44.9 µM
